Data on eleven compounds can be found in patent US20100041892A1, “Therapeutic agent for diabetes” (priority 2005, published 2010).

Where two headings read alike, the source gives them in different places.

In one data set the test system is KKAy mice. The experiment in a line: Blood glucose and blood lipid (triglyceride) lowering action in mice. Format: in vivo. As to conditions: Mus musculus, 4TO7, po, 0.01% in powder diet, 4 to 7 days. The gist of the method:
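KKAy mice (9 to 14-week-old, 5 per group) fed compound in powder diet at 0.01% (some at 0.03% or 0.005%) ad libitum for 4 to 7 days. Orbital plexus blood drawn; plasma glucose and triglyceride quantitated by enzyme method.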

For the next data set, the target named is T1, PPARγ-RXRα heterodimer (Homo sapiens, UniProt P37231).
T1 construct: expressed in transfected cells; host or cells: CHO-K1 (PPARγ:RXRα:4ERPP/CHO-K1)
T1 sequence (P37231 1-477 isoform P37231-2): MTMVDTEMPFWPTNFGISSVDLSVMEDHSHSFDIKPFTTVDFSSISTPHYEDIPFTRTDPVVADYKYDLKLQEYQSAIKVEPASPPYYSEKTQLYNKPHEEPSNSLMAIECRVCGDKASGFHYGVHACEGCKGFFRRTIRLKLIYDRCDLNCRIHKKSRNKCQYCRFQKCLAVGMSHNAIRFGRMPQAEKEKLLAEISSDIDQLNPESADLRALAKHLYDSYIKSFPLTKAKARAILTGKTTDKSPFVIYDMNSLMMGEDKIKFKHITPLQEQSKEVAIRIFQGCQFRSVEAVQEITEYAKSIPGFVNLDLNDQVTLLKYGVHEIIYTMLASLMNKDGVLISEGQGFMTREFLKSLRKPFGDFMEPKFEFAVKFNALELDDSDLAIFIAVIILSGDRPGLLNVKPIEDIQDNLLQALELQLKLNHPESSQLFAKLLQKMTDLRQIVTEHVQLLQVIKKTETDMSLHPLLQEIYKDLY
T1 sequence (P19793 1-462 partner): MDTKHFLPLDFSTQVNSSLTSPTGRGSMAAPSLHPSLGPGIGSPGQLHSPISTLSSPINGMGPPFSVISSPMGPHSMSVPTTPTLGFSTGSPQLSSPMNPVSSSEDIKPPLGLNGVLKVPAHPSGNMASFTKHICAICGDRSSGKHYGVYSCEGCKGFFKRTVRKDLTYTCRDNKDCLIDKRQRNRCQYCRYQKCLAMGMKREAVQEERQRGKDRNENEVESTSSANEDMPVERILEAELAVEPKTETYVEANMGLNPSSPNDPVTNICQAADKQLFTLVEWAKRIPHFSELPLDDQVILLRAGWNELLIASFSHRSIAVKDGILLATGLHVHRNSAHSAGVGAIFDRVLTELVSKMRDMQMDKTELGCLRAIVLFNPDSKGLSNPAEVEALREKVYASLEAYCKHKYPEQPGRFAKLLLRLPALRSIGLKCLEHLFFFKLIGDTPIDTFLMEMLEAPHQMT
The experiment in a line: PPARγ-RXRα heterodimer ligand activity (luciferase reporter, PPARγ:RXRα:4ERPP/CHO-K1 cells). As to conditions: concentration showing 50% of the maximum luciferase induction rate; CHO-K1 reporter cells, one day incubation. Format: cell-based. The essentials:
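CHO-K1 cells expressing PPARγ:RXRα with a 4ERPP reporter were exposed to compound for one day at 37° C in Ham F12 containing 0.1% fatty acid-free BSA, then read for luciferase. Induction rate was taken relative to untreated cells as 1, and EC50 is the concentration giving 50% of maximal induction.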
(In general: Reporter assays use an easily measured gene product as a stand-in for the process of interest.)

Setting [1] is: plasma glucose relative to non-administration group = 100%, read-out: hypoglycemic action (%).
[2] abbreviates: plasma triglyceride relative to non-administration group = 100%, read-out: hypolipidemic action (%).

Regarding `CCCCCS(=O)(=O)NC(=O)/C=C/c1cc(OCC2CC2)nn1Cc1ccc(C(F)(F)F)cc1Cl` [Example 151, (2E)-3-[1-[2-chloro-4-(trifluoromethyl)benzyl]-3-(cyclopropylmethoxy)-1H-pyrazol-5-yl]-N-(pentylsulfonyl)acrylamide], the melting point – broadly, the temperature, or range, at which the solid turns liquid – lay in the range of 148 to 151 °C. Further, the response vs control in vivo at 0.01 % in the data set with KKAy mice (setting [1]) was 59%. Further, in the data set on KKAy mice (setting [2]), the response vs control in vivo at 0.01 % turned out to be 73%. Also, a half-maximal effect on PPARγ-RXRα heterodimer (EC50) was put at 7.2 nM.
With `CCCCCS(=O)(=O)NC(=O)/C(=C/c1ccc(OCCOC)cc1Oc1ncc(C(F)(F)F)cc1Cl)CC` [Example 183, (2E)-2-[2-{[3-chloro-5-(trifluoromethyl)pyridin-2-yl]oxy}-4-(2-methoxyethoxy)benzylidene]-N-(pentylsulfonyl)butanamide], the melting point was 104.5 to 105.6 °C. Besides, the response vs control in vivo at 0.01 % with KKAy mice (setting [1]) was determined as 48%. For the same compound, the response vs control in vivo at 0.01 % in the data set with KKAy mice (setting [2]) was 44%. Also, the EC50 (commonly the concentration at which the effect is half-maximal) on PPARγ-RXRα heterodimer worked out at 3.8 nM.
In the case of `CCCCCS(=O)(=O)NC(=O)/C=C/c1ccc(OCCC2OCCO2)cc1Oc1ncc(C(F)(F)F)cc1Cl` [Example 196, (2E)-3-[2-{[3-chloro-5-(trifluoromethyl)pyridin-2-yl]oxy}-4-[2-(1,3-dioxolan-2-yl)ethoxy]phenyl)-N-(pentylsulfonyl)acrylamide], the melting point lay in the range of 116 to 118 °C. Moreover, the response vs control in vivo at 0.01 % in the data set with KKAy mice (setting [1]) came out at 54%. The response vs control in vivo at 0.01 % in the data set with KKAy mice (setting [2]) is 79%. The same compound yielded an EC50 on PPARγ-RXRα heterodimer of 4.4 nM.
In the same order, the values of `CCCCCS(=O)(=O)NC(=O)/C=C/c1ccc(Oc2ncccn2)cc1Oc1ncc(C(F)(F)F)cc1Cl` [Example 197, (2E)-3-[2-{[3-chloro-5-(trifluoromethyl)pyridin-2-yl]oxy}-4-(pyrimidin-2-yloxy)phenyl]-N-(pentylsulfonyl)acrylamide] are 80.5 to 82.5 °C, 58%, 87% and 28 nM.
The compound `CCCCCS(=O)(=O)NC(=O)/C=C/c1ccc(OC(COCC)COCC)cc1Oc1ncc(C(F)(F)F)cc1Cl` [Example 198, (2E)-3-{2-{[3-chloro-5-(trifluoromethyl)pyridin-2-yl]oxy}-4-[2-ethoxy-1-(ethoxymethyl)ethoxy]phenyl}-N-(pentylsulfonyl)acrylamide] yielded a melting point of 83 to 85.5 °C. For the same compound, in the data set with KKAy mice (setting [1]), the response vs control in vivo at 0.01 % came to 62%. Also, the response vs control in vivo at 0.01 % in the data set on KKAy mice (setting [2]) was determined as 84%. Moreover, the midpoint of the response on PPARγ-RXRα heterodimer, the EC50, lay at 7.8 nM.
In the same order, the values of `COCCOc1ccc(CCCOC(=O)NS(=O)(=O)NC2CCC(C)CC2)c(Oc2ncc(C(F)(F)F)cc2Cl)c1` (centres unmarked) [Example 205, 3-[2-{[3-chloro-5-(trifluoromethyl)pyridin-2-yl]oxy}-4-(2-methoxyethoxy)phenyl]propyl {[(4-methylcyclohexyl)amino]sulfonyl}carbamate] are 121.5 to 121.8 °C, 54%, 50% and 3.1 nM.
In the same order, the values of `COCCOc1ccc(CCCOC(=O)NS(=O)(=O)NCCc2cccs2)c(Oc2ncc(C(F)(F)F)cc2Cl)c1` [Example 207, 3-[2-{[3-chloro-5-(trifluoromethyl)pyridin-2-yl]oxy}-4-(2-methoxyethoxy)phenyl]propyl ({[2-(2-thienyl)ethyl]amino}sulfonyl)carbamate] are 117.5 to 118 °C, 54%, 43% and 0.99 nM.
In the same order, the values of `COCCOc1ccc(CCCOC(=O)NS(=O)(=O)NCCc2ccccn2)c(Oc2ncc(C(F)(F)F)cc2Cl)c1` [Example 208, 3-[2-{[3-chloro-5-(trifluoromethyl)pyridin-2-yl]oxy}-4-(2-methoxyethoxy)phenyl]propyl {[(2-pyridin-2-ylethyl)amino]sulfonyl}carbamate] are 91 to 93 °C, 70%, 71% and 4 nM.
Take `COCCOc1ccc(CCCOC(=O)NS(=O)(=O)NCCOC(C)C)c(Oc2ncc(Cl)cc2Cl)c1` [Example 429, 3-[2-[(3,5-dichloropyridin-2-yl)oxy]-4-(2-methoxyethoxy)phenyl]propyl {[(2-isopropoxyethyl)amino]sulfonyl}carbamate]: the melting point was 87.5 to 88.4 °C. Moreover, the response vs control in vivo at 0.01 % in the data set with KKAy mice (setting [1]) is 51%. The response vs control in vivo at 0.01 % with KKAy mice (setting [2]) was found to be 60%. The same compound came in with an EC50 on PPARγ-RXRα heterodimer of 3.8 nM.
In the same order, the values of `CCOCC(COCC)Oc1ccc(CCCOC(=O)NS(=O)(=O)NCCOC(C)C)c(Oc2ncc(C(F)(F)F)cc2Cl)c1` [Example 430, 3-{2-{[3-chloro-5-(trifluoromethyl)pyridin-2-yl]oxy}-4-[2-ethoxy-1-(ethoxymethyl)ethoxy]phenyl}propyl {[(2-isopropoxyethyl)amino]sulfonyl}carbamate] are 68 to 69.2 °C, 45%, 34% and 0.95 nM.
The like results for `COCCOc1ccc(/C=C/COC(=O)NS(=O)(=O)N2CCCC2)c(Oc2ncc(C(F)(F)F)cc2Cl)c1` [Example 437, (2E)-3-[2-{[3-chloro-5-(trifluoromethyl)pyridin-2-yl]oxy}-4-(2-methoxyethoxy)phenyl]prop-2-en-1-yl (pyrrolidin-1-ylsulfonyl)carbamate] were, in that order, 123 to 124 °C, 45%, 58% and 54 nM.
